Measurements: patent US20200155478A1, “XIBORNOL FOR USE IN THE TREATMENT OF ACNE VULGARIS” (ABIOGEN PHARMA S.P.A., priority 2017, published 2020)
In brackets after ≈: the same amount, converted by molar mass.

Tests used:
[1] = test system: inflammatory cytokine IL-8; assay: Mouse model for Acne vulgaris induced by Propionibacterium acnes, IL-8 ELISA in ear homogenate supernatants; format: in vivo, Balb/c strain mice
Protocol: For the experiment, female Balb/c strain mice were used, grouped according to the experimental plan shown below in Table 5: [table] The sham group consisted of mice which received an intradermal injection, in each ear, of 25 μl of D-PBS (Dulbecco's phosphate buffered saline), while the other two groups consisted of mice which received an intradermal injection, in each ear, of 25 μl of D-PBS containing 10^8 CFU (colony-forming units) of Propionibacterium acnes. As of the day following the injection: • the sham group of mice was not treated; • the control group was treated, once a day, for 7 consecutive days, directly to the sites of inoculation of the bacterium, with a topical application of the formulation without active principle, i.e. with the carrier, consisting of three parts of paraffin oil and two parts of filamentary vaseline; • the […], once a day, for 7 consecutive days, directly to the sites of inoculation of the bacterium), with a topical application of the formulation containing xibornol in a concentration of 0.1% (corresponding to 0.79 mg/mL) in the carrier, consisting of three parts of paraffin oil and two parts of filamentary vaseline. The mice were sacrificed 24 hours after the last topical application. […]

[2] = test system: RHE EPISKIN artificial epidermis; assay: Skin irritation and sensitisation test (OECD TG 404), MTT viability; format: cell-based, human; conditions: liquid formulations of xibornol, isopropanol and PBS buffer; 42' contact, assessed after 42 hours
Protocol: In order to establish the usable concentrations of xibornol in solution for the production of pharmaceutical forms intended for external topical use, a skin irritation and sensitisation test was carried out, according to standard OECD TG 404, method B.4, Annex V, Directive 67/548/EEC. A RHE EPISKIN artificial epidermis unit was used for the test. The kit consisted of 24 reconstructed epidermis units with a total area of 0.33 cm^2. Each unit consisted of a collagen matrix with a stratified, differentiated epidermis derived from human keratinocytes placed on top thereof. The substances to be tested were placed in contact (42′) with the epidermis and the effects assessed after 42 hours, incubating the units with MTT (3-(4,5-dimethylthiazol-2-yl)-2,5-diphenyltetrazolium bromide) which, under the experimental conditions, reduced to formazan upon contact with metabolically active cells, turning the coloured solution from yellow into blue. Since the obtained colour is directly proportional to the concentration of formazan, and therefore to the cell viability, after incubation with MTT for 3 hours, optical density readings were taken by using the spectrophotometer (DO 572-650 nm).

Propionibacterium acnes [3] = assay: Determination of the minimum bactericidal concentration (MBC), inoculation on RCA plates; format: cell-based
Protocol: (§1) Two strains of Propionibacterium acnes were used for this test: the Grerath strain (ATCC-11827) and the VPI 0389 strain (ATCC-6919).
(§2) Clostridial differential broth (CDB, liquid medium) and reinforced clostridial agar (RCA, solid medium) were used for the culture. Growth occurred under anaerobic conditions obtained in a 7.0 L GENBOX JAR.
(§3) The anaerobic conditions were obtained by activating the Anaerocult A preparation and the anaerobiosis control was assessed by using ANAEROTEST strips for microbiology.
(§4) The Propionibacterium acnes was incubated at 37° C. for 72 hours.
To determine the minimum bactericidal concentration (MBC), 10 μl of solution was taken from each well on the above described plate and inoculated on RCA plates containing the same concentrations of xibornol in 4% isopropanol present in the wells of the plate.

[4] = Dissolution of xibornol in 4% isopropanol; format: physicochemical
Protocol: In order to perform the antimicrobial tests in aqueous solutions (broth and agar), said xibornol, a lipophilic molecule, was dissolved in a hydrophilic solvent, and more specifically in isopropanol.

Propionibacterium acnes [5] = assay: Determination of the minimum inhibitory concentration (MIC), 96-well broth plate, OD 600 nm and PrestoBlue; format: cell-based
Protocol: as §1, §2, §3, §4
Propionibacterium acnes strains were reactivated from ATCC vials, rehydrated with CDB medium, and then seeded on RCA plates.
To cultivate Propionibacterium acnes in broth, isolated colonies were taken from culture plates and inoculated in the CBD medium.
After culturing, the concentration of bacterial cells was normalised using the McFarland 0.5 standard.
A 96-well plate was prepared in order to establish the minimum inhibitory concentration; the xibornol was dissolved in a 4% isopropanol solution in various concentrations, and the samples were prepared according to the experimental plan shown in the following table 1.
All the wells in rows D, E, F and the first three wells from the left in row H contained Propionibacterium acnes at the final concentration of 5×10^5 bacteria/mL.
Row G (wells 1, 2, 3) was the negative control and contained only the culture medium, without bacteria, xibornol, or isopropanol.
Row H (wells 1,2,3) was the positive control and contained the bacterial culture without xibornol or isopropanol.
Unmarked wells were empty.
The reading of the plate, after an incubation under anaerobic conditions at 37° C., was performed after 72 hours.
A first spectrophotometer reading was taken, including measurement of the OD (optical density) at 600 nm.
To highlight the presence or absence of bacterial growth on the plate described above, PrestoBlue was also used, which is a resazurin-based solution which uses the reducing power of cells to measure cell proliferation. Said solution is blue and turns into red upon contact with live bacterial cells.
After having incubated the plate with the PrestoBlue and read the fluorescence values by using a Victor 3 Wallac microplate reader, the data were confirmed.

Cc1cc(O)c(C2CC3CCC2(C)C3(C)C)cc1C (racemic) [xibornol, 4,5-dimethyl-2-[1,7,7-trimethylbicyclo[2.2.1]heptan-2-yl]phenol]
Average concentration of IL-8 ([1]; 0.1% xibornol (0.79 mg/mL) in paraffin oil/vaseline carrier, topical once a day for 7 days, ear homogenate supernatant): 190.61 pg/mL | change in IL-8 levels with respect to the control group ([1]; 0.1% xibornol topical, once a day for 7 days): significant reduction | concentration of xibornol administrable topically without irritation or sensitisation of the epidermis [2]: less than 5 mg/mL | concentration of xibornol administrable topically without irritation or sensitisation of the epidermis, even more preferably [2]: less than 2.5 mg/mL | minimum bactericidal concentration (MBC) (Propionibacterium acnes [3]; 10 μl from each well inoculated on RCA plates with the same xibornol concentrations in 4% isopropanol): 9.37 µg/mL (≈ 36.3 µM) | MBC (Propionibacterium acnes [3]; Cutibacterium acnes, 10 μl from each well inoculated on RCA plates with the same xibornol concentrations in 4% isopropanol): 4.69 to 9.37 µg/mL (≈ 18.1 to 36.3 µM) | growth on RCA plates (Propionibacterium acnes [3]; xibornol 4.69 μg/mL): massive growth, comparable to that of the positive control | amount of xibornol dissolved by 4% isopropanol [4]: up to 1200 μg/mL | MIC (Propionibacterium acnes [5]; Cutibacterium acnes, ATCC 11827 / ATCC 6919, 72 h, strains ATCC-11827 and ATCC-6919, anaerobic, 37° C., 72 hours, xibornol racemate in 4% isopropanol): 4.69 to 9.37 µg/mL (≈ 18.1 to 36.3 µM) | antibacterial efficacy compared with clindamycin (Propionibacterium acnes [5]; Propionibacterium acnes): comparable to that of clindamycin | minimum inhibitory concentration (MIC) (Propionibacterium acnes [5]; strains ATCC-11827 and ATCC-6919, anaerobic, 37° C., 72 hours, xibornol racemate in 4% isopropanol): 9.37 µg/mL (≈ 36.3 µM) | bacterial growth in wells (Propionibacterium acnes [5]; xibornol at 4.69 μg/mL, 2.34 μg/mL, 1.17 μg/mL, 72 hours, PrestoBlue red colour): bacterial growth was observed
